Measured values from patent US20240277708A1, “Use of [1,2,4] Triazolo [4,3-B] Pyridazine Derivative For Preventing and Treating Senescence and Senescence-Related Diseases” (The Eighth Affiliated Hospital, Sun Yat-Sen University, priority 2023, published 2024).

Legend:
BJ cells = experiment: VP16-induced cellular senescence, SA-β-gal staining, BJ cells; type: cell-based, Human; conditions: C1632 120 μM, VP16 40 μM for 4-7 days, FIG. 1A, 1B
Description: MRC5 and BJ cells were cultured in DMEM low-glucose medium containing 10% FBS. The cells were passaged or plated at a ratio of 1:3.0.5×10^5 cells were plated in 12-well plates and in the next day treated with VP16 at a final concentration of 40 μM for 4-7 days to induce cellular senescence. A cellular senescence model was constructed. While inducing cellular senescence, C1632 with a final concentration of 120 μM is added. The effect of C1632 on the senescence of BJ and MRC5 cells was detected by SA-β-gal staining, and the effect of C1632 on cellular senescence was studied.

[1] = test system: IPF mice (C57BL/6, bleomycin); experiment: Bleomycin-induced idiopathic pulmonary fibrosis (IPF) mouse model; type: in vivo
Description: A mouse model of […] was constructed by injecting bleomycin (2 mg/kg) into the lungs of the mice through the airway after anesthesia.
(1) Sacrificing the mice after anesthesia, and weighing the lungs and recording as Mlung; {umlaut over (2)} weighing the empty 1.5 mL centrifuge tube, filling with normal saline and the recording the weight of the centrifuge tube again; calculating the exact volume of the tube (Vtube) based on the weight and density of normal saline; (3) completely immersing the lung tissue in the normal saline of the centrifuge tube, covering the lid of centrifuge tube after removing the air, wiping off the water stains around the tube, and recording the weight as M; (4) calculating the weight of normal saline in the tube: […]; (5) calculating the volume of normal saline in the tube: Vsaline=[…], wherein, ρsaline is the density of normal saline; (6) calculating lung volume: Vlung=Vtube−Vsaline; and (7) calculating lung density: μlung=Mlung/Vlung.
The lung tissues were fixed by immersion in 4% paraformaldehyde and then gradiently dehydrated in 70% ethanol for 5 hours, 80% ethanol for 1 h, 90% ethanol for 1 h, 95% ethanol for 1 h, absolute ethanol for 1 h, absolute ethanol for 0.5 h, absolute ethanol+TO (1:1) for 1 h, TO for 1 h, TO for 1 h, paraffin (62° C.) for 1 h, paraffin (62° C.) for 1 h, paraffin (62° C.) for 1 h. After dehydration, the lung tissues were wrapped in the wax blocks and sectioned with a thickness of 4 μm. The paraffin sections were baked at 65° C. for 1 h and then exposed to xylene for 5 min, xylene for 5 min, absolute ethanol for 5 min, 95% ethanol for 5 min, 90% ethanol for 5 min, 85% ethanol for 5 min, 75% ethanol for 5 min; then, gently boiled in citric acid solution for 10 min and naturally cooled to room temperature, and exposed to 3% hydrogen peroxide for 10 min. The sections were blocked with goat antiserum for 1 h at room temperature, incubated overnight with primary antibodies against CD45 (abeam), CD3 (abeam) or CD68 (abeam), then washed 3 times with PBS for 5 min each time, and then incubated with immunohistochemical secondary antibodies (Fujian Maixin) at room temperature for 20 min. Then, the sections was subjected to color development for 2 min by using DAB chromogenic kit (Fujian Maixin), rinsed with water to remove DAB, stained with hematoxylin for 2 min and rinsed with running water for 8 minutes to return blue. After drying, the sections were sealed with neutral gum and photographed.
In this example, the degree of fibrosis in lung tissue was detected through Masson staining, using the Masson trichrome staining kit (Fujian Maixin).
To investigate whether C1632 can be used for the treatment of IPF, the inventors treated IPF mice with C1632 according to the method of FIG. 9A, and divided the mice into (1) normal mice+normal saline group; (2) normal mice+C1632 group; (3) IPF mice+normal saline group; and (4) IPF mice+C1632 group, each group had at least 4 mice. At the end of the experiment, the lung tissues of the mice were taken and photographed. […] The lungs of the model group are dark red, and some lung lobes are gray white, hardened, and scattered gray white plaques of different sizes could be seen.

[2] = test system: C57BL/c mice, VD3-induced vascular calcification; experiment: VD3-induced aortic vascular calcification mouse model, alizarin red staining; type: in vivo; conditions: VD3 500 IU/g/day for 2 days, C1632 68 mg/kg twice a week, after 6 days; FIG. 15
Description: C57BL/c mice were intraperitoneally injected with VD3 at a dose of 500 IU/g/day for 2 consecutive days, and then divided into: (1) Saline group; (3) C1632 group, 10 mice in each group. C1632 was administered twice a week, and CKD mice were treated with C1632 at a dose of 68 mg/kg of body weight each time. After 6 days, the mice were sacrificed, and the aortic blood vessels were dissected for alizarin red staining and hydroxyapatite staining.

[3] = stated for a known small molecule drug, no test described; cited from earlier work

Q: Which results are given for CC(=O)N(C)c1cccc(-c2ccc3nnc(C)n3n2)c1 [C1632]?
A: VP16-induced senescence (β-gal-positive cell rate) in BJ cells (BJ cells): inhibits VP16-induced senescence; Lung density relative to water (lung lobes placed in water) ([1]; IPF mice + C1632, FIG. 9C): less dense than water; Lung density (drainage method) ([1]; IPF mice + C1632 vs IPF mice + saline, FIG. 9D): significantly reduced; Lung shape, color and hardness (gross appearance) ([1]; IPF mice + C1632 vs control group, FIG. 9B): closer to those of the control group; Infiltration of CD45 (total immune cells) in lung, IHC ([1]; IPF mice, injection of C1632, FIG. 10A, 10B): significantly reduces the infiltration of immune cells; Infiltration of CD68 (macrophages) in lung, IHC ([1]; IPF mice, injection of C1632, FIG. 10A, 10C): significantly reduces the infiltration; Infiltration of CD3 (T cells) in lung, IHC ([1]; IPF mice, injection of C1632, FIG. 10A, 10D): significantly reduces the infiltration; Hydroxyproline content in lung ([1]; IPF mice, FIG. 9I): significantly inhibit the increase of hydroxyproline; Alveolar architecture and fibrosis areas, H&E and Masson staining ([1]; lungs of C1632-treated IPF mice, FIG. 9E to 9G): more alveolar architecture and less fibrosis areas; Aortic vascular calcification, alizarin red staining [2]: significantly inhibits the progression of aortic vascular calcification; Solubility [3]: can be dissolved in water, ethanol or DMSO; Thermal stability [3]: good thermal stability
